Assay: mn = molality of the nth substance listed, in mol/kg
Settings: 298.15 K, 101.3 kPa, Liquid, Vibrating tube method

NCC(=O)O [2-aminoacetic acid] + O
Settings | mass density [kg/m3]
m1 = 0.09741 | 1000.14
m1 = 0.2011 | 1003.37
m1 = 0.3016 | 1006.46
m1 = 0.3936 | 1009.25
m1 = 0.4878 | 1012.07
m1 = 0.5916 | 1015.1

CCC(N)C(=O)O (stereo not drawn) [(.+-.)-α-aminobutyric acid] + O
Settings | mass density [kg/m3]
m1 = 0.03934 | 998.127
m1 = 0.08124 | 999.275
m1 = 0.1445 | 1000.99
m1 = 0.2022 | 1002.54
m1 = 0.2374 | 1003.48
m1 = 0.2864 | 1004.78
m1 = 0.3179 | 1005.6

CC(N)C(=O)O (stereo not drawn) [DL-2-aminopropanoic acid] + O
Settings | mass density [kg/m3]
m1 = 0.0436 | 998.297
m1 = 0.08036 | 999.343
m1 = 0.1483 | 1001.26
m1 = 0.2059 | 1002.86
m1 = 0.3297 | 1006.26
m1 = 0.3863 | 1007.79
m1 = 0.4436 | 1009.33

CC(C)C[C@H](N)C(=O)O [L-leucine] + O
Settings | mass density [kg/m3]
m1 = 0.01266 | 997.346
m1 = 0.01738 | 997.458
m1 = 0.02274 | 997.582
m1 = 0.03028 | 997.762
m1 = 0.03943 | 997.975
m1 = 0.04666 | 998.149
m1 = 0.05611 | 998.37

N[C@@H](Cc1ccccc1)C(=O)O [L-phenylalanine] + O
Settings | mass density [kg/m3]
m1 = 0.01545 | 997.721
m1 = 0.02099 | 997.961
m1 = 0.02977 | 998.343
m1 = 0.03372 | 998.516
m1 = 0.04624 | 999.058
m1 = 0.05305 | 999.349
m1 = 0.05832 | 999.577

CC(=O)[O-].[Na+] [sodium ethanoate] + O
Settings | mass density [kg/m3]
m1 = 0.5 | 1023.28
m1 = 1 | 1047.56
m1 = 2 | 1086.81
m1 = 4 | 1123.24
m1 = 5.5 | 1139.16
